inhibition, Activity and MIC data for three compounds are collected here from ChEMBL document CHEMBL3758102, “Serrulatane Diterpenoid from Eremophila neglecta Exhibits Bacterial Biofilm Dispersion and Inhibits Release of Pro-inflammatory Cytokines from Activated Macrophages” (J Nat Prod, 2015).

Calls of active or inactive are those of the source.

Assay [1] deals with Staphylococcus epidermidis. Put plainly: Antibiofilm activity against Staphylococcus epidermidis ATCC 35984 assessed as inhibition of 12 hrs pre-established biofilm formation at 0.064 umol/well after 20 hrs by visible spectrometric analysis. The class given is functional, organism-based.
For assay [2], the system named is Staphylococcus epidermidis. Briefly: Antibiofilm activity against Staphylococcus epidermidis ATCC 35984 assessed as killing of biofilm in 12 hrs pre-established biofilm at 0.064 umol/well after 20 hrs by fluorescence staining-based confocal microscopic analysis. The class given is functional, organism-based.
In assay [3] the test system is Staphylococcus epidermidis. Briefly: Antibiofilm activity against Staphylococcus epidermidis ATCC 35984 assessed as inhibition of 24 hrs pre-established biofilm formation at 0.064 umol/well after 20 hrs by safranin staining-based method. The class given is functional, organism-based.
For assay [4], the system named is Staphylococcus epidermidis. Briefly: Antibiofilm activity against Staphylococcus epidermidis ATCC 35984 assessed as inhibition of 3 to 6 hrs pre-established biofilm formation at 0.064 umol/well after 20 hrs by safranin staining-based method. The assay is classed as functional, organism-based.
The subject of assay [5] is Staphylococcus epidermidis. Briefly: Antibacterial activity against Staphylococcus epidermidis ATCC 35984 incubated overnight by broth microdilution method. The assay is classed as functional. For orientation: In broth dilution the organism is exposed to a series of concentrations in liquid medium.
Assay [6] relates to Staphylococcus epidermidis. Put plainly: Antibiofilm activity against Staphylococcus epidermidis ATCC 35984 assessed as reduction in 12 hrs pre-established biofilm viable cell count after 20 hrs (reference value: 1.2 x 10^10 CFU/ml). The assay is classed as functional.
Assay [7] deals with Staphylococcus epidermidis. Put plainly: Antibiofilm activity against Staphylococcus epidermidis ATCC 35984 assessed as inhibition of 12 hrs pre-established biofilm formation at 0.064 umol/well after 20 hrs by safranin staining-based method. The class given is functional, organism-based.
In assay [8] the test system is Staphylococcus epidermidis. Briefly: Antibiofilm activity against Staphylococcus epidermidis ATCC 35984 assessed as 12 hrs pre-established biofilm viable cell count after 20 hrs (reference value: 1.2 x 10^10 CFU/ml). The class given is functional.
Assay [9] has as its system Staphylococcus epidermidis. Briefly: Antibiofilm activity against Staphylococcus epidermidis ATCC 35984 assessed as 6 hrs pre-established biofilm viable cell count after 20 hrs (reference value: 8.3 x 10^9 CFU/ml). The assay is classed as functional.
Assay [10] concerns Staphylococcus epidermidis. Briefly: Antibiofilm activity against Staphylococcus epidermidis ATCC 35984 assessed as 24 hrs pre-established biofilm viable cell count after 20 hrs (reference value: 1.4 x 10^10 +/- 2.6 x 10^9 CFU/ml). The class given is functional.
Assay [11] deals with Staphylococcus epidermidis. Briefly: Antibiofilm activity against Staphylococcus epidermidis ATCC 35984 assessed as inhibition of 24 hrs pre-established biofilm formation at 0.064 umol/well after 20 hrs by visible spectrometric analysis. The class given is functional, organism-based.
For assay [12], the system named is Staphylococcus epidermidis. Put plainly: Antibiofilm activity against Staphylococcus epidermidis ATCC 35984 assessed as 3 hrs pre-established biofilm viable cell count after 20 hrs (reference value: 1 x 10^10 CFU/ml). The assay is classed as functional.
Assay [13] deals with BMDM. Briefly: Inhibition of TNFalpha production in C57Bl/6 mouse BMDM cells at 1.6 to 6.4 uM pretreated prior to LPS-stimulation measured on day 7 by ELISA. The assay is classed as functional, cell-based. The following applies: C57BI/6. (In general: In an ELISA, binding on a coated surface is turned into a signal by an enzyme label.)
Assay [14] has as its system BMDM. Briefly: Inhibition of IL-1beta production in C57Bl/6 mouse BMDM cells at 1.6 to 6.4 uM pretreated for 1 hr prior to ATP-stimulation by ELISA. The assay is classed as functional, cell-based. The following applies: C57BI/6.
Assay [15] relates to BMDM. Put plainly: Inhibition of IL-6 production in C57Bl/6 mouse BMDM cells at 1.6 to 6.4 uM pretreated prior to LPS-stimulation measured on day 7 by ELISA. The following applies: C57BI/6. The class given is functional, cell-based.

Broadly, the MIC is the smallest concentration in the dilution series that meets the test's criterion for growth inhibition. On to `C[C@H]1COc2c(N3CCN(C)CC3)c(F)cc3c(=O)c(C(=O)O)cn1c23.C[C@H]1COc2c(N3CCN(C)CC3)c(F)cc3c(=O)c(C(=O)O)cn1c23.O` [LEVOFLOXACIN], for which the inhibition entry in [1] and in assay [11] was “Active” in each case. For the same compound, the result in assay [2] and in [4] was Active. For the same compound, the result in assay [3] and in [7] was inactive. In [5], this compound displayed an MIC of 0.66 µM. Besides, the Activity in assay [6] was determined as 7 log10CFU/ml; in assay [8] it was 8 ×10³ CFU/ml; in [9], 0 CFU/ml; in [10], 2.2 ×10⁶ CFU/ml; in assay [12], 0 CFU/ml.

With `N=C(NCCCCCCNC(=N)NC(=N)Nc1ccc(Cl)cc1)NC(=N)Nc1ccc(Cl)cc1` [CHLORHEXIDINE], the inhibition result in assay [1] and in assay [11] was “Active” in each case. The result in assay [2], in [3] and in assay [7] was Active. In addition, the outcome in assay [4] was inactive. The Activity in [6] stood at 7 log10CFU/ml; in [8] it was 4 ×10³ CFU/ml; in [9], 0 CFU/ml; in assay [10], 1.3 ×10⁶ CFU/ml; in assay [12], 0 CFU/ml.

As to `C[C@]12CCC(=O)C=C1CC[C@@H]1[C@@H]2[C@@H](O)C[C@@]2(C)[C@H]1CC[C@]2(O)C(=O)COC(=O)CCC(=O)O`, the inhibition result in the assay with BMDM [13] and with BMDM [15] was “Active” in each case. For the same compound, the inhibition result in the assay on BMDM [14] was “inactive”.
